# Laboratory results as given in patent publication US8772343B2, “Chemical compounds” (Pfizer Limited, priority 2010, dated 2014).
# Molecular target: T1, Nav1.7 (or SCN9A) channel (Homo sapiens, UniProt Q15858)
# T1 construct: expressed in transfected cells
# Assay: Nav1.7 PatchXpress automated whole-cell electrophysiology in HEK cells expressing hSCN9A
# Assay type: cell-based
# Settings: estimated IC50 from single point data, PatchXpress assay, held at V1/2 of inactivation, read-out: Nav1.7 EIC50
# Experimental: The ability of the compounds of formula (I) to block the Nav1.7 (or SCN9A) channel were measured using the assay described below.
# Human Embryonic Kidney (HEK) cells were transfected with an hSCN9A construct using lipofectamine reagent (Invitrogen), using standard techniques. Cells stably expressing the hSCN9A constructs were identified by their resistance to G-418 (400 μg/ml). Clones were screened for expression using the whole-cell voltage-clamp technique.
# HEK cells stably transfected with hSCN9A were maintained in DMEM medium supplemented with 10% heat-inactivated fetal bovine serum and 400 μg/ml G-418 in an incubator at 37° C. with a humidified atmosphere of 10% CO2. For HTS, cells were harvested from flasks by trypsinization and replated in an appropriate multi-well plate (typically 96 or 384 wells/plate) such that confluence would be achieved within 24 hours of plating. For electrophysiological studies, cells were removed from the culture flask by brief trypsinization and re-plated at low density onto glass cover slips. Cells were typically used for electrophysiological experiments within 24 to 72 hours after plating.
# Cover slips containing HEK cells expressing hSCN9A were placed in a bath on the stage of an inverted microscope and perfused (approximately 1 ml/minutes) with extracellular solution of the following composition: 138 mM NaCl, 2 mM CaCl2, 5.4 mM KCl, 1 mM MgCl2, 10 mM glucose, and 10 mM HEPES, pH 7.4, with NaOH. […] The osmolarity of the extracellular and intracellular solutions was 300 mOsm/kg and 295 mOsm/kg, respectively. All recordings were made at room temperature (22-24° C.) using AXOPATCH 200B amplifiers and PCLAMP software (Axon Instruments, Burlingame, Calif.).
# hSCN9A currents in HEK cells were measured using the whole-cell configuration of the patch-clamp technique (Hamill et al., 1981). Uncompensated series resistance was typically 2 to 5 mega ohms and >85% series resistance compensation was routinely achieved. As a result, voltage errors were negligible and no correction was applied. Current records were acquired at 20 to 50 KHz and filtered at 5 to 10 KHz.
# HEK cells stably transfected with hSCN9A were viewed under Hoffman contrast optics and placed in front of an array of flow pipes emitting either control or compound-containing extracellular solutions. All compounds were dissolved in dimethyl sulfoxide to make 10 mM stock solutions, which were then diluted into extracellular solution to attain the final concentrations desired. […] The voltage-dependence of inactivation was determined by applying a series of depolarizing prepulses (8 sec long in 10 mV increments) from a negative holding potential. The voltage was then immediately stepped to 0 mV to assess the magnitude of the sodium current. Currents elicited at 0 mV were plotted as a function of prepulse potential to allow estimation of the voltage at which 50% of the channels were inactivated (midpoint of inactivation or V1/2). Compounds were tested for their ability to inhibit hSCN9A sodium channels by activating the channel with a 20 msec voltage step to 0 mV following an 8 second conditioning prepulse to the empirically determined V1/2. Compound effect (% inhibition) was determined by difference in current amplitude before and after application of test compounds. For ease of comparison, “estimated IC-50” (EIC50) values were calculated from single point electrophysiology data by the following equation, (tested concentration, uM)×(100-% inhibition/% inhibition). Inhibition values<20% and >80% were excluded from the calculation.
# Electrophysiological assays were conducted with PatchXpress 7000 hardware and associated software (Molecular Devices Corp). All assay buffers and solutions were identical to those used in conventional whole-cell voltage clamp experiments described above. hSCN9A cells were grown as above to 50%-80% confluency and harvested by trypsinization. […]
# T1 sequence (Q15858 whole entry): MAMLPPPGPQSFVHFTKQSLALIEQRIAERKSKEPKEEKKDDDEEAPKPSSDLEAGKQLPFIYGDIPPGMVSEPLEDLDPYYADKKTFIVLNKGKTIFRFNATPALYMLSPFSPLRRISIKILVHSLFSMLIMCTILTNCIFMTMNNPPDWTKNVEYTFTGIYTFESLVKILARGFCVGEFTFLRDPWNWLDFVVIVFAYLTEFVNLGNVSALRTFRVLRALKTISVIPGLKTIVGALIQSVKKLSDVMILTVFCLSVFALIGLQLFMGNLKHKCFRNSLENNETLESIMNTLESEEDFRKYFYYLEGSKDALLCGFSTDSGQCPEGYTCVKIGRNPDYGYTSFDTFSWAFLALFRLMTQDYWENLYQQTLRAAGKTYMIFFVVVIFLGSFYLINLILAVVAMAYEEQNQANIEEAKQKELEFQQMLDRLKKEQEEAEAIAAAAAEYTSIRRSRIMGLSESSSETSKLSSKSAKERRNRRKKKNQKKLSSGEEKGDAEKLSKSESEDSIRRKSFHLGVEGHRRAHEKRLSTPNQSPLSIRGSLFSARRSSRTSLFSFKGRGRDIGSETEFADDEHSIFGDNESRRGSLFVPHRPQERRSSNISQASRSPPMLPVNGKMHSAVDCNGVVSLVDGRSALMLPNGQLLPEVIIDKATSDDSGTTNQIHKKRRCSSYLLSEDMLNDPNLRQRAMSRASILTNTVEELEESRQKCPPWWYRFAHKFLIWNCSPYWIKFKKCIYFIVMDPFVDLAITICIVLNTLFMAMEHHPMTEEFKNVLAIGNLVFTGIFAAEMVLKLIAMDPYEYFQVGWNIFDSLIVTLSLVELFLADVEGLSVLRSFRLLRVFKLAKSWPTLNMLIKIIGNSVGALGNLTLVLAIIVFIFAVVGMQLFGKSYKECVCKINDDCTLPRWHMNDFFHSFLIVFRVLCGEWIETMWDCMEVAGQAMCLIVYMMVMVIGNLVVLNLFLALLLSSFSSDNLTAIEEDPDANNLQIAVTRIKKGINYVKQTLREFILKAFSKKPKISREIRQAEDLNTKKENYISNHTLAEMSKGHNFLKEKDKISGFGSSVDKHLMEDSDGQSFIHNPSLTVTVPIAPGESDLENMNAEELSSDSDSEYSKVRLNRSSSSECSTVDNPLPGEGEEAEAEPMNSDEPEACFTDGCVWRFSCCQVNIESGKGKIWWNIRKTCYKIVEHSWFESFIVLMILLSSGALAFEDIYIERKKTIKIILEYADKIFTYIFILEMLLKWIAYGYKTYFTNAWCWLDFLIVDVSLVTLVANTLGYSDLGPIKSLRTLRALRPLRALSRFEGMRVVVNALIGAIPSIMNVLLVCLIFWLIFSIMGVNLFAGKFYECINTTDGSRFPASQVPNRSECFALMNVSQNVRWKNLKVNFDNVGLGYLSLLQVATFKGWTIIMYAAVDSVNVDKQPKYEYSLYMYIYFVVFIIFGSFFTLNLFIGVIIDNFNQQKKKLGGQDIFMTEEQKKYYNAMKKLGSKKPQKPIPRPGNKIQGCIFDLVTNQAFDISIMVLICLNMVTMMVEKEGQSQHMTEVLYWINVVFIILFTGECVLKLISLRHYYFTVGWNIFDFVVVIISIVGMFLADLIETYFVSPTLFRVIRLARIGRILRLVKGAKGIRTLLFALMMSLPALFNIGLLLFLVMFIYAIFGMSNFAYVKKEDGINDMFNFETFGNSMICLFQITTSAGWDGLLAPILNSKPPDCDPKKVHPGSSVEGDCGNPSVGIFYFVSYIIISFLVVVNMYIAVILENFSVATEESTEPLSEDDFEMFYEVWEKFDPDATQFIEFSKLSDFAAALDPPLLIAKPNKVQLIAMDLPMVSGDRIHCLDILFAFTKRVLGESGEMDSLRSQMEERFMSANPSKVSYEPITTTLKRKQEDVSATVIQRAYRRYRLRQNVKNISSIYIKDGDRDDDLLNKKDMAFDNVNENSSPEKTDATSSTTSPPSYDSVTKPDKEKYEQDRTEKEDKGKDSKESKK
row,IC50 [nM],Compound
1,7500,"COc1ccc(-c2cc(C(=O)NS(C)(=O)=O)ccc2Oc2ccc(Cl)cc2)c(C)n1 [Example 42, 4-(4-chlorophenoxy)-3-(6-methoxy-2-methylpyridin-3-yl)-N-(methylsulfonyl)benzamide]"
2,630,"CS(=O)(=O)NC(=O)c1ccc(Oc2ccc(Cl)cc2)c(-c2ccc(C(F)(F)F)cc2)c1 [Example 43, 6-(4-chlorophenoxy)-N-(methylsulfonyl)-4′-(trifluoromethyl)biphenyl-3-carboxamide]"
3,2000,"COc1cc(-c2cc(C(=O)NS(C)(=O)=O)ccc2Oc2ccc(Cl)cc2)ccn1 [Example 45, 4-(4-chlorophenoxy)-3-(2-methoxypyridin-4-yl)-N-(methylsulfonyl)benzamide]"
4,92,"COc1ncccc1-c1cc(C(=O)NS(C)(=O)=O)ccc1Oc1ccc(Cl)cc1 [Example 47, 4-(4-chlorophenoxy)-3-(2-methoxypyridin-3-yl)-N-(methylsulfonyl)benzamide]"
5,9800,"Cn1cc(-c2cc(C(=O)NS(C)(=O)=O)ccc2Oc2ccc(Cl)cc2)cn1 [Example 48, 4-(4-chlorophenoxy)-3-(1-methyl-1H-pyrazol-4-yl)-N-(methylsulfonyl)benzamide]"
6,> 3000,"CS(=O)(=O)NC(=O)c1ccc(Oc2ccc(Cl)cc2)c(-c2cnc(N)nc2)c1 [Example 49, 3-(2-aminopyrimidin-5-yl)-4-(4-chlorophenoxy)-N-(methylsulfonyl)benzamide]"
7,730,"COc1ccc(-c2cc(C(=O)NS(C)(=O)=O)ccc2Oc2ccc(Cl)cc2)cc1 [Example 50, 6-(4-chlorophenoxy)-4′-methoxy-N-(methylsulfonyl)-biphenyl-3-carboxamide]"
8,440,"COc1ncccc1-c1cc(C(=O)NS(C)(=O)=O)ccc1Oc1ccc(F)c(F)c1 [Example 55, 4-(3,4-difluorophenoxy)-3-(2-methoxypyridin-3-yl)-N-(methylsulfonyl)benzamide]"
9,2400,"COc1ncccc1-c1cc(C(=O)NS(C)(=O)=O)ccc1Oc1ccc(C#N)cc1 [Example 56, 4-(4-cyanophenoxy)-3-(2-methoxypyridin-3-yl)-N-(methylsulfonyl)benzamide]"

# More lines, now with the values behind:
row,Compound,IC50 [nM]
1,"COc1ncccc1-c1cc(C(=O)NS(C)(=O)=O)ccc1Oc1ccccc1F [Example 51, 4-(2-fluorophenoxy)-3-(2-methoxypyridin-3-yl)-N-(methylsulfonyl)benzamide]",1700
2,"COc1ncccc1-c1cc(C(=O)NS(C)(=O)=O)ccc1Oc1cccc(Cl)c1 [Example 52, 4-(3-chlorophenoxy)-3-(2-methoxypyridin-3-yl)-N-(methylsulfonyl)benzamide]",460
3,"COc1ncccc1-c1cc(C(=O)NS(C)(=O)=O)ccc1Oc1cc(F)cc(Cl)c1 [Example 53, 4-(3-chloro-5-fluorophenoxy)-3-(2-methoxypyridin-3-yl)-N-(methylsulfonyl)benzamide]",120
4,"COc1ncccc1-c1cc(C(=O)NS(C)(=O)=O)ccc1Oc1cccc(C(C)C)c1 [Example 54, 4-(3-isopropylphenoxy)-3-(2-methoxypyridin-3-yl)-N-(methylsulfonyl)benzamide]",120
5,"COc1cc(Cl)cc(Oc2ccc(C(=O)NS(C)(=O)=O)cc2-c2cccnc2OC)c1 [Example 57, 4-(3-chloro-5-methoxyphenoxy)-3-(2-methoxypyridin-3-yl)-N-(methylsulfonyl)benzamide]",660
6,"COc1ncccc1-c1cc(C(=O)NS(C)(=O)=O)ccc1Oc1ccccc1OC(F)(F)F [Example 58, 3-(2-methoxypyridin-3-yl)-N-(methylsulfonyl)-4-[2-(trifluoromethoxy)phenoxy]benzamide]",> 1000
7,"COc1ncccc1-c1cc(C(=O)NS(C)(=O)=O)ccc1Oc1cccc(F)c1 [Example 59, 4-(3-fluorophenoxy)-3-(2-methoxypyridin-3-yl)-N-(methylsulfonyl)benzamide]",370
8,"CCc1cc(Oc2ccc(C(=O)NS(C)(=O)=O)cc2-c2cccnc2OC)ccc1Cl [Example 60, 4-(4-chloro-3-ethylphenoxy)-3-(2-methoxypyridin-3-yl)-N-(methylsulfonyl)benzamide]",18
